The test has as its target CD73 (Homo sapiens (Human), UniProt P21589). The experiment in a line: Biochemical assay: inhibition of CD73 activity (AMP hydrolysis, Malachite Green readout). Particulars: CD73 0.3208 nM, AMP 15 μM, 25 mM Tris-HCl pH 7.4, RT, absorbance 620 nm. The method, boiled down:
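Phosphate from AMP hydrolysis (15 μM AMP, 10 min, RT) was detected by Malachite Green absorbance to give IC50s. Enzyme at 320 pM was first exposed 15 min to compounds, dosed from 100 μM in ½-log steps, in Tris pH 7.4 buffer with MgCl2, Brij-35 and BSA.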

Results on six molecules are retold here after patent US11325938B2, “CD73 inhibitors” (ORIC Pharmaceuticals, Inc., priority 2018, dated 2022).

The structures appear in SMILES notation. pIC50: −log10 of the molar value.

CD73, sequence (P21589 27-574): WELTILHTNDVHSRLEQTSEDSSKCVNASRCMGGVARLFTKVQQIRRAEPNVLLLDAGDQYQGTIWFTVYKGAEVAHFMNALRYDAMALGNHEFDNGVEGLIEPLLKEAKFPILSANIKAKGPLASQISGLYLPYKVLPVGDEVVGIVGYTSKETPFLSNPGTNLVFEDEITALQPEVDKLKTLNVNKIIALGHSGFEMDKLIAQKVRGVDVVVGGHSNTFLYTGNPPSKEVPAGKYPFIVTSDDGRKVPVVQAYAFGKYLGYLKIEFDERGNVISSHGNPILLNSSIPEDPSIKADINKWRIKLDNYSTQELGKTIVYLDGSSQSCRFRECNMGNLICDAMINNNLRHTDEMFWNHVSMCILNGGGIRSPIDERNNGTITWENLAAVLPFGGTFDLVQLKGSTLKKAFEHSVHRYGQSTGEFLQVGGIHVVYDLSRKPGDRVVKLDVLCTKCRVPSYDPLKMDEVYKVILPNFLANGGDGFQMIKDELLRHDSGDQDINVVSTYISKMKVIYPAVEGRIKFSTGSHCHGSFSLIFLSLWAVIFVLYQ

As for `O=c1[nH]c(CC(CO)(OC[C@H]2O[C@@H](n3ncc4c(NC5CCCC5)nc(Cl)nc43)[C@H](O)[C@@H]2O)P(=O)(O)O)no1` (mixture of isomers) [Example 206, rac-(2-(((2R,3S,4R,5R)-5-(6-chloro-4-(cyclopentylamino)-1H-pyrazolo[3,4-d]pyrimidin-1-yl)-3,4-dihydroxytetrahydrofuran-2-yl)methoxy)-1-hydroxy-3-(5-oxo-4,5-dihydro-1,2,4-oxadiazol-3-yl)propan-2-yl)phosphonic acid], the pIC50 is ≥ 7.00.
Under `C[C@@H](O)COc1nc(NC2CCCC2)c2cnn([C@@H]3O[C@H](CO[C@@](C)(CO)P(=O)(O)O)[C@@H](O)[C@H]3O)c2n1` (racemic) [Example 165, rac-((R)-2-(((2R,3S,4R,5R)-5-(4-(cyclopentylamino)-6-((R)-2-hydroxypropoxy)-1H-pyrazolo[3,4-d]pyrimidin-1-yl)-3,4-dihydroxytetrahydrofuran-2-yl)methoxy)-1-hydroxypropan-2-yl)phosphonic acid] stands ≥ 7.00.
Under `O=P(O)(O)CS(=O)(=O)C[C@H]1O[C@@H](n2nnc3c(NCC4CC4)cc(Cl)nc32)[C@H](O)[C@@H]1O` [Example 25, (((((2S,3S,4R,5R)-5-(5-chloro-7-((cyclopropylmethyl)amino)-3H-[1,2,3]triazolo[4,5-b]pyridin-3-yl)-3,4-dihydroxytetrahydrofuran-2-yl)methyl)sulfonyl)methyl)phosphonic acid] stands ≥ 7.00.
The figure for `COCC(C)(OC[C@@H]1C[C@@H](O)[C@H](n2ncc3c(NC4CCCC4)nc(Cl)nc32)O1)P(=O)(O)O` (stereo partly drawn) [Example 70, (2-(((2S,4R,5R)-5-(6-chloro-4-(cyclopentylamino)-1H-pyrazolo[3,4-d]pyrimidin-1-yl)-4-hydroxytetrahydrofuran-2-yl)methoxy)-1-methoxypropan-2-yl)phosphonic acid] is 6.00 to 7.00.
Regarding `COCC(COC)(OC[C@H]1O[C@@H](n2ncc3c(NC4CCC4)nc(Cl)nc32)[C@H](O)[C@@H]1O)P(=O)(O)O` (racemic) [Example 174, rac-(2-(((2R,3S,4R,5R)-5-(6-chloro-4-(cyclobutylamino)-1H-pyrazolo[3,4-d]pyrimidin-1-yl)-3,4-dihydroxytetrahydrofuran-2-yl)methoxy)-1,3-dimethoxypropan-2-yl)phosphonic acid], the pIC50 is ≥ 7.00.
The figure for `COP(=O)(CP(=O)(O)O)OC[C@H]1O[C@@H](n2nnc3c(NC4CCCC4)cc(Cl)nc32)[C@H](O)[C@@H]1O` (stereo partly drawn) [Example 54, (((((2R,3S,4R,5R)-5-(5-chloro-7-(cyclopentylamino)-3H-[1,2,3]triazolo[4,5-b]pyridin-3-yl)-3,4-dihydroxytetrahydrofuran-2-yl)methoxy)(methoxy)phosphoryl)methyl)phosphonic acid] is ≥ 7.00.
